Measurements published in article PMC5518105, “Identification and characterization of the antiplasmodial activity of Hsp90 inhibitors” (Malaria Journal, 2017).
“Also recorded” adds a separate entry of the source. Where two headings read alike, the source gives them in different places.

Experiments:
P. falciparum 3D7 [1] = experiment: Parasite stage specific effect, 3D7; format: cell-based, Plasmodium falciparum; conditions: 3D7, 24 h; 17-DMAG 1.2 µM, NVP-AUY922 0.72 µM
Method: (§1) Synchronized P. falciparum cultures were used to determine the susceptibility of different parasite stages to Hsp90 inhibitors. Three synchronized cultures per strain, with a majority of the parasites in the ring (0–26 h post red blood cell infection), trophozoite (26–38 h) or schizont (38–48 h) stages respectively (Fig. 3). […] The cultures were exposed to one concentration of the Hsp90 inhibitor for 24 h. […] For each three exposed the cultures and the control for both strains 3D7 and W2, the parasitaemia and the developmental stage of the parasites were recorded. Before and after drug exposure, Giemsa-stained blood smears were scored by microscopy examination counting 100 infected erythrocytes per culture, and the proportion of each developmental stage was calculated.

[2] = test system: Primary normal human lung fibroblasts (NHLFs); experiment: Drug cytotoxicity assay (MTT); conditions: 24 h
Method: Primary normal human lung fibroblasts (NHLFs) were seeded on 24-well plates and cultured in FGM-2 media (LONZA, Basel, Switzerland) until they reached 80% confluency. […] Briefly, 50 µL of MTT dye was added into the media and the cells were returned to the incubator for 3 h. Then 500 µL of solubilization solution was added to dissolve the MTT formazan crystals. […] The drug cytotoxicity assay was performed in triplicate.

P. falciparum W2 [3] = experiment: Parasite stage specific effect, W2; format: cell-based, Plasmodium falciparum; conditions: W2, 24 h; 17-DMAG 1.2 µM, NVP-AUY922 0.72 µM
Method: as §1

human Hsp90α = target: T1, human Hsp90α (Homo sapiens, UniProt P07900); experiment: Biacore SPR analysis, full-length human Hsp90α; format: binding; conditions: SPR, 25 °C
T1 construct: Full-length human recombinant HSP90α was purchased; purchased Cayman Chemicals, MI
Method: (§2) Full-length human recombinant HSP90α was purchased (Cayman Chemicals, MI), while the malaria recombinant parasite proteins were generated according to the following protocol. […] Growth at 37 °C continued until the OD600 reached ~1.0, whereupon the temperature was lowered to 18 °C and protein expression was induced by the addition of 1 mM isopropyl β-D-thiogalactopyranoside (IPTG). Overnight post-induction cells were collected by centrifugation and resuspended in binding buffer [50 mM Hepes pH 7.5, 500 mM NaCl, 1 mM benzamidine, and 1 mM phenylmethanesulfonyl fluoride (PMSF)]. The cells were lysed by adding chemical lysis buffer (2% CHAPS, 0.1 mg/mL lysozyme and 0.5 U/mL benzonase), the lysate was clarified by centrifugation. The supernatant was loaded on to a nickel-nitrilotriacetic acid column pre-equilibrated with binding buffer (50 mM Hepes pH 7.5, 500 mM NaCl). Following a wash step with binding buffer containing 5 mM imidazole, the bound protein was eluted with elution buffer (50 mM Hepes pH 7.5, 500 mM NaCl, 250 mM imidazole). The eluate was then loaded on to a 16/60 Superdex 200 size exclusion column pre-equilibrated with 50 mM Hepes pH 7.5 and 500 mM NaCl. Target protein-containing fractions were pooled and concentrated using centrifugal filter units (Amicon). The final protein products and samples for different steps in the purification procedures were evaluated in SDS-Page gels.
SPR measurements were performed on Biacore T200 instrument (GE Healthcare) at 25 °C. Purified P. falciparum Hsp90 and PfGRP94 N-terminal domain, and full-length human Hsp90α were immobilized on a CM5 sensorchip using NHS/EDC coupling following the manufacturer protocol to a level of <10,000 RUs, a reference surfaces without immobilized proteins served as a control for nonspecific binding and refractive index changes. […] The running buffer was 10 mM HEPES, pH 7.4, 150 mM NaCl, 0.005% P20, 1% DMSO and 2 mM MgCl2. Buffer alone injections were used as blanks. The sensor surface was regenerated between injections with a short injection of a buffer 10 mM HEPES, pH 7.4, 150 mM NaCl, 0.005% P20 and 3 mM EDTA. The Biacore responses recorded during the 30 s of the injection were used to estimate the association constant (k on) and the 300 s after the injection were used to estimate the dissociation constant (k off). All kinetic constants were estimated using double subtracted sensorgrams using BiaEvaluation Software (GE Healthcare), the kinetic constants were used to calculate the dissociation constant (K d).

P. falciparum Hsp90 = P. falciparum Hsp90 (Plasmodium falciparum, UniProt Q8IC05); experiment: biochemical; format: binding
Chain of P. falciparum Hsp90 (Q8IC05 entry or part of it): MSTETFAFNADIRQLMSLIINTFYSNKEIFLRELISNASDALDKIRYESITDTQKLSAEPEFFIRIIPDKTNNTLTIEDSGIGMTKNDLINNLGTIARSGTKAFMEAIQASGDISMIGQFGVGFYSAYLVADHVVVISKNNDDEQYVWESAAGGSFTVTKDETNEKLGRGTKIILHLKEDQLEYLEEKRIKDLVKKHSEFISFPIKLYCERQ
Method: as §2
(§3) SPR measurements were performed on Biacore T200 instrument (GE Healthcare) at 25 °C. Purified P. falciparum Hsp90 and PfGRP94 N-terminal domain, and full-length human Hsp90α were immobilized on a CM5 sensorchip using NHS/EDC coupling following the manufacturer protocol to a level of <10,000 RUs, a reference surfaces without immobilized proteins served as a control for nonspecific binding and refractive index changes. Seven different concentrations of the ligands between 0.4 nM and 1 mM, were injected in triplicate over the sensor chip at 30 μL/min in random order. The running buffer was 10 mM HEPES, pH 7.4, 150 mM NaCl, 0.005% P20, 1% DMSO and 2 mM MgCl2. Buffer alone injections were used as blanks. The sensor surface was regenerated between injections with a short injection of a buffer 10 mM HEPES, pH 7.4, 150 mM NaCl, 0.005% P20 and 3 mM EDTA. The Biacore responses recorded during the 30 s of the injection were used to estimate the association constant (k on) and the 300 s after the injection were used to estimate the dissociation constant (k off). All kinetic constants were estimated using double subtracted sensorgrams using BiaEvaluation Software (GE Healthcare), the kinetic constants were used to calculate the dissociation constant (K d).

P. falciparum Grp94 = P. falciparum Grp94 (Plasmodium falciparum, UniProt Q8I0V4); experiment: biochemical; format: binding; conditions: SPR, 25 °C
Chain of P. falciparum Grp94 (Q8I0V4 entry or part of it): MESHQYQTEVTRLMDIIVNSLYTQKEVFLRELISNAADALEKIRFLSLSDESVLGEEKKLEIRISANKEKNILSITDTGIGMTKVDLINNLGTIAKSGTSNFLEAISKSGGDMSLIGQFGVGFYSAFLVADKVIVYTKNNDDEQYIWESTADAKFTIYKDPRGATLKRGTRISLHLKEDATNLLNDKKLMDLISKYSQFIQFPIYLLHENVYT
Method: as §2, §3

[4] = test system: P. falciparum chloroquine sensitive 3D7; experiment: Growth inhibition assay (SYBR Green I), 3D7; conditions: 3D7, 72 h; for IC50: synchronized ring culture
Method: (§5) A 50% suspension of non-infected O positive erythrocytes was added every 2 days to adjust haematocrit to 5%. Parasite cultures were maintained at 37 °C in 5% O2 and 5% CO2 atmosphere with daily changes of culture media.
(§6) A synchronized P. falciparum culture, with over 80% ring forms, was used in the growth inhibition assay. […] A 190 μL aliquot of parasite culture was dispensed per well to microplates that were pre-dispensed with the compounds at various dilutions. […] Dilutions of Hsp90 inhibitors and DHA were prepared in water with a final concentration of DMSO below 0.05% (v/v).
(§7) The microplates were incubated at 37 °C in a controlled atmosphere (5% O2, 5% CO2 Nitrogen balanced) for 72 h. After incubation, the plates were subject to a freeze–thaw cycle (−80 °C) and the parasite growth was quantified by the SYBR Green I method as previously described [33]. Briefly, 100 µL of homogenized parasite culture was transferred into 96-well black plates. […] The plates were incubated at room temperature in darkness for 1 h.
(§8) Growth inhibition experiments were conducted at least three times per compound (biological replicates, n ≥ 3). The IC50 differences for each inhibitor between the two P. falciparum strains were compared with a t test.

P. falciparum W2 [5] = experiment: Recrudescence assay, W2; format: cell-based, Plasmodium falciparum
Method: (§4) The assay is a modification of the previously reported bulk recrudescence assay. […] […] After drug exposure, the medium containing the drug was removed and the cultures were washed twice with compound-free media, and resuspended in RPMI to adjust haematocrit to 5%. The medium was changed every day and red blood cells were added every 2 days to adjust the haematocrit. The cultures were monitored daily until they reached 10% parasitaemia, which represented the end point of the experiment. Culture parasitaemia was determined by scoring >2000 erythrocytes in Giemsa-stained thin blood films as parasitized or not. The median number of days to reach this level of parasitaemia was reported for all the experiments. All experiments were conducted in triplicate; each replica was conducted on different days. The differences in the recovery times between control cultures to those exposed to Hsp90 inhibitors were analysed using the non-parametric statistic Kruskal–Wallis test. If the overall test was significant then Dunn’s multiple comparison tests were used to identify significant differences among pair comparisons. The same statistical analysis was applied when comparing P. falciparum cultures exposed to DHA alone versus DHA in combination with Hsp90 inhibitors. […] The statistical analyses were performed with the software Prism v6 (GraphPad Software, San Diego, CA).

[6] = test system: P. falciparum chloroquine resistant W2; experiment: Growth inhibition assay (SYBR Green I), W2; conditions: W2, 72 h; for IC50: synchronized ring culture
Method: as §5, §6, §7, §8

P. falciparum 3D7 [7] = experiment: Recrudescence assay, 3D7; format: cell-based, Plasmodium falciparum
Method: as §4

[8] = mouse, in vivo; cited from earlier work

CO[C@H]1/C=C\C=C(/C)C(=O)NC2=CC(=O)C(NCCN(C)C)=C(C[C@@H](C)C[C@H](OC)[C@H](O)[C@@H](C)/C=C(\C)[C@@H]1OC(N)=O)C2=O [17-DMAG, 17-(dimethylaminoethylamino)-17-demethoxygeldanamycin]
effect against all parasite stages (ring, trophozoite, schizont) (P. falciparum 3D7 [1]): effective against all parasite stages | IC50 ([2]; Homo sapiens, Fibroblast, read-out: IC50 against human cells): > 10 µM | growth inhibition for the human cells ([2]; NHLF, 0.5 to 10 µM): ≤ 25% | growth of host cells compared to no drug controls ([2]; NHLF, 0.5 to 10 µM, t test): only the highest concentration (10 µM) was significantly different from the controls | effect against all parasite stages (ring, trophozoite, schizont) (P. falciparum W2 [3]): effective against all parasite stages | kd (human Hsp90α): 0.007 s⁻¹ | ka (P. falciparum Hsp90; SPR, 25 °C): 208,000 1/Ms | kd (P. falciparum Hsp90; SPR, 25 °C): 0.001 s⁻¹ | Kd (P. falciparum Hsp90; SPR, 25 °C, calculated from kinetic constants, read-out: Kd): 0.008 µM | Kd (P. falciparum Hsp90; read-out: Kd against the parasite chaperone): 0.00823 µM | ka (P. falciparum Grp94): 53,000 1/Ms | kd (P. falciparum Grp94): 0.001 s⁻¹ | Kd (P. falciparum Grp94; calculated from kinetic constants, read-out: Kd): 0.023 µM | IC50 [4]: 0.118 µM | IC90 ([4]; Plasmodium falciparum): 0.287 µM | IC50 ([4]; Plasmodium falciparum): 0.118 µM | recovery time in combination with DHA vs DHA alone (P. falciparum W2 [5]; W2, 48 h, two concentrations plus DHA 100 nM): not significantly more toxic to W2 | delay of culture recovery vs untreated control (cytocidal activity) (P. falciparum W2 [5]; W2, 48 h exposure, 17-AAG 1.5-6 µM, 17-DMAG 0.3-1.2 µM, NVP-AUY922 0.18-0.72 µM): only significantly different from the control parasite cultures when assayed at a concentration ~8 times its average IC50; also recorded: strong cytotoxic activities | IC90 ([6]; Plasmodium falciparum): 0.542 µM | IC50 ([6]; Plasmodium falciparum): 0.169 µM | IC50 [6]: 0.17 µM | recovery time in combination with DHA vs DHA alone (P. falciparum 3D7 [7]; 3D7, 48 h, two concentrations plus DHA 100 nM): more effective in combination against P. falciparum 3D7 but only at one of the lowest concentrations | delay of culture recovery vs untreated control (cytocidal activity) (P. falciparum 3D7 [7]; 3D7, 48 h exposure, 17-AAG 1.5-6 µM, 17-DMAG 0.3-1.2 µM, NVP-AUY922 0.18-0.72 µM): only significantly different from the control parasite cultures when assayed at a concentration ~8 times its average IC50; also recorded: strong cytotoxic activities | tolerability [8]: well tolerated without any visible side effects
